4 compounds from ChEMBL document CHEMBL5465560, “Selectivity Literature for EUbOPEN Chemogenomic Library” (2024) can be followed below.

Assay [1] concerns the target Serine/threonine-protein kinase 25 (Homo sapiens) (UniProt O00506). The experiment in a line: Selectivity interaction (KinomeScan (DiscoverX)) EUB0000699a STK25. Particulars: at 10 µM.
Assay [2] addresses T1, Serine/threonine-protein kinase RIO1 (Homo sapiens) (UniProt Q9BRS2).
T1 sequence (whole entry): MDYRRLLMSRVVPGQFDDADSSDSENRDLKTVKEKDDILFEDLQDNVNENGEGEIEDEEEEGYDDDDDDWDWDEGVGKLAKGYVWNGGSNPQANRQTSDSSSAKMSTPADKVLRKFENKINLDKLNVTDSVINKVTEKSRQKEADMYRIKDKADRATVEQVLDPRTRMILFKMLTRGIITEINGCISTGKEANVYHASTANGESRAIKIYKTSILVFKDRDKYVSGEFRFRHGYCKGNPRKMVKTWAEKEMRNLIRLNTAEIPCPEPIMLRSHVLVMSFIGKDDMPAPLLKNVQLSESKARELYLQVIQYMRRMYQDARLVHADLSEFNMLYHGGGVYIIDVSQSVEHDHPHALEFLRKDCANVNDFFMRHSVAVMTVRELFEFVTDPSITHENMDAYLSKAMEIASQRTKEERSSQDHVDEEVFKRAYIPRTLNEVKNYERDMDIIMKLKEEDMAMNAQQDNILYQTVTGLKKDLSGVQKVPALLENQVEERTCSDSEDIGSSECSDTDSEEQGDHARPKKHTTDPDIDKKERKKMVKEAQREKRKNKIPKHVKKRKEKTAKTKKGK
The settings on record: at 10 µM.

Assay [3] has as its target T2, Dual serine/threonine and tyrosine protein kinase (Homo sapiens) (UniProt Q6XUX3).
T2 sequence (whole entry): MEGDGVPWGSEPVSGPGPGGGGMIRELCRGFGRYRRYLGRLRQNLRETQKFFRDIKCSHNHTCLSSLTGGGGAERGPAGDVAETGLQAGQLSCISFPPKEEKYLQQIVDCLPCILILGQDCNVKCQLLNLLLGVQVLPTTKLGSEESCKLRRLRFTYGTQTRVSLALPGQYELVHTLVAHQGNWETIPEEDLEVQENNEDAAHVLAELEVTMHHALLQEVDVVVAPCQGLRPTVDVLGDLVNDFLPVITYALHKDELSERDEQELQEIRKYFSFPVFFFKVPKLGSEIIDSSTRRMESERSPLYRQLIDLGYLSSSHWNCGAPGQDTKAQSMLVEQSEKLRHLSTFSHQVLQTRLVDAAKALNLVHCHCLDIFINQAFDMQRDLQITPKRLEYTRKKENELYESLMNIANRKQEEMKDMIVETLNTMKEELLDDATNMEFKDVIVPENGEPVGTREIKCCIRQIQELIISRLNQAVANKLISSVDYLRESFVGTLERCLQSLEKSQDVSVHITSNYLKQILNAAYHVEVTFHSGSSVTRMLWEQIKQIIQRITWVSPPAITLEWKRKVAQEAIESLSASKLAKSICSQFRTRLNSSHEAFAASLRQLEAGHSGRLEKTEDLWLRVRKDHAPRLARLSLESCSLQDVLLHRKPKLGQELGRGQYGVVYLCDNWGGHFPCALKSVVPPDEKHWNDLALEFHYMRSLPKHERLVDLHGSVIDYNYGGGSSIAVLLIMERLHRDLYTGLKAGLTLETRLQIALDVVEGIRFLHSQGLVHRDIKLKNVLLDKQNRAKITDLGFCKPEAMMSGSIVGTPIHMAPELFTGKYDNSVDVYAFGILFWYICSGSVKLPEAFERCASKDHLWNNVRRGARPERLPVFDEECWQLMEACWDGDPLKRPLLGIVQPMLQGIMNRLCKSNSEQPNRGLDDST
Nature of the assay: Selectivity interaction (KinomeScan (DiscoverX)) EUB0000607a DSTYK. Particulars: at 10 µM.

For assay [4], the target named is T3, Mitogen-activated protein kinase kinase kinase 2 (Homo sapiens) (UniProt Q9Y2U5).
T3 sequence (whole entry): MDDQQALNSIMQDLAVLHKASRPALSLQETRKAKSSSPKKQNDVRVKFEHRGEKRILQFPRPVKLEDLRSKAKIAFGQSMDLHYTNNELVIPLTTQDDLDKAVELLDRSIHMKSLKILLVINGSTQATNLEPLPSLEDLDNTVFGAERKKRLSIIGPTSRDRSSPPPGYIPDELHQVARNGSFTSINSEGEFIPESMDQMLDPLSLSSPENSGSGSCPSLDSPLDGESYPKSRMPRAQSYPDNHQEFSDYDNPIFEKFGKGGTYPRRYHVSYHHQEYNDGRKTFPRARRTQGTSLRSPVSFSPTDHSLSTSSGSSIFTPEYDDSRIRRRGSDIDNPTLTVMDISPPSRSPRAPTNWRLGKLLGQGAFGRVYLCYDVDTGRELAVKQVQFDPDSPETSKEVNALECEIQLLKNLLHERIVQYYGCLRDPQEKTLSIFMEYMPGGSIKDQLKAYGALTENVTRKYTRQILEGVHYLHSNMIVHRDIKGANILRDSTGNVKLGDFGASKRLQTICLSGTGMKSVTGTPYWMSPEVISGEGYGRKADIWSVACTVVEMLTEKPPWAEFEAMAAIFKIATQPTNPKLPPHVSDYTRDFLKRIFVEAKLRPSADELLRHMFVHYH
The experiment in a line: Selectivity interaction (Kinase panel (Invitrogen)) EUB0000639a MAP3K2. The settings on record: at 200 nM.

The target in assay [5] is T4, Serine/threonine-protein kinase Sgk3 (Homo sapiens) (UniProt Q96BR1).
T4 sequence (whole entry): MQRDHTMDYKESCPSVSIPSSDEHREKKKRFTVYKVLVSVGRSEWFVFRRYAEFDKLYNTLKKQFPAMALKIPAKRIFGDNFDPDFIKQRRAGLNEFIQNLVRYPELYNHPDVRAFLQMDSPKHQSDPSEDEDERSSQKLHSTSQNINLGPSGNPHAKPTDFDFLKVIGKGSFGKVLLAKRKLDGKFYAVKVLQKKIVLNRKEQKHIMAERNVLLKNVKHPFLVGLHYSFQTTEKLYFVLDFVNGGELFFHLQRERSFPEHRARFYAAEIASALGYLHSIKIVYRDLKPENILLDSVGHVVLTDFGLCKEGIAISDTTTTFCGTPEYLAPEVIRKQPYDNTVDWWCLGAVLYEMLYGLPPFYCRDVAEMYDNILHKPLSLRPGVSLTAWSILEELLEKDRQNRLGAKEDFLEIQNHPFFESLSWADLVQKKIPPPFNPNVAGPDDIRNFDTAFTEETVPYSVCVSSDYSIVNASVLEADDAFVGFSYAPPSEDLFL
The experiment in a line: Selectivity interaction (ActivX KiNativ screen (ex vivo kinase selectivity in human PBMCs)) EUB0001619a SGK3. Type of assay: cell-based. Particulars: PBMC, at 1 µM.

Sequence of Serine/threonine-protein kinase 25 (Homo sapiens) (O00506 whole entry, looked up): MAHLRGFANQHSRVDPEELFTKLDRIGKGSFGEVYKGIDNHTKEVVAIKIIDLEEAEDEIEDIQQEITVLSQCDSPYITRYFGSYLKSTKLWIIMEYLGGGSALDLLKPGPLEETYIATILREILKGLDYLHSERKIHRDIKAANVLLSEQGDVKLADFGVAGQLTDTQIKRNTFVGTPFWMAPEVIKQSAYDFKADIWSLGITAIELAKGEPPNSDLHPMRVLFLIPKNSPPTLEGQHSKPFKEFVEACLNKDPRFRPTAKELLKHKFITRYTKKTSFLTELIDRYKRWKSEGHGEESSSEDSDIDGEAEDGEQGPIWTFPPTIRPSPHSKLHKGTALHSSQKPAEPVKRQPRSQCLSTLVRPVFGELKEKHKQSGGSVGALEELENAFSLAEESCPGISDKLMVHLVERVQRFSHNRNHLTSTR

With `CCN(CC)CCCCNc1ncc2cc(-c3cc(OC)cc(OC)c3)c(NC(=O)NC(C)(C)C)nc2n1`, the % of control in assay [1] stood at 9.4%; in assay [2] it was 100%.

`CNC(=O)Nc1ccc(-c2nc(N3CC4CCC(C3)O4)c3cnn(C4CCC5(CC4)OCCO5)c3n2)cc1`: in assay [3], the % of control came to 100%. With `CC[C@@H]1[C@H](F)C(=O)N[C@@H]1COc1nccc2cc(C(N)=O)c(OC)cc12` [ZIMLOVISERTIB], in assay [4], the % of inhibition was -4.03%. With `N#Cc1cccc(-c2c[nH]c3ncnc(N4CCOCC4)c23)c1`, in assay [5], the % of inhibition is -1%.
